Key:
Test in all cases: Kinase selectivity panel
Assay type in all cases: biochemical
Conditions in all cases: read-out: Inhibition(%) @ 1 µM RK-019
[1] = molecular target: T1, Met(h) (Homo sapiens, UniProt P08581)
T1 construct: purchased Eurofins Discovery Services (KinaseProfiler)
Procedure, shortened: (§1)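 Single-point selectivity screen: 1 µM compound, recombinant human enzyme, in vitro ATP-site competition binding; result expressed as inhibition ratio.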

[2] = molecular target: T2, Cdc7/cyclinB1(h) (Homo sapiens, UniProt O00311)
T2 construct: purchased Eurofins Discovery Services (KinaseProfiler)
Procedure, shortened: as §1

[3] = molecular target: T3, MRCKα(h) (Homo sapiens, UniProt Q5VT25)
T3 construct: purchased Eurofins Discovery Services (KinaseProfiler)
T3 sequence (Q5VT25 whole entry): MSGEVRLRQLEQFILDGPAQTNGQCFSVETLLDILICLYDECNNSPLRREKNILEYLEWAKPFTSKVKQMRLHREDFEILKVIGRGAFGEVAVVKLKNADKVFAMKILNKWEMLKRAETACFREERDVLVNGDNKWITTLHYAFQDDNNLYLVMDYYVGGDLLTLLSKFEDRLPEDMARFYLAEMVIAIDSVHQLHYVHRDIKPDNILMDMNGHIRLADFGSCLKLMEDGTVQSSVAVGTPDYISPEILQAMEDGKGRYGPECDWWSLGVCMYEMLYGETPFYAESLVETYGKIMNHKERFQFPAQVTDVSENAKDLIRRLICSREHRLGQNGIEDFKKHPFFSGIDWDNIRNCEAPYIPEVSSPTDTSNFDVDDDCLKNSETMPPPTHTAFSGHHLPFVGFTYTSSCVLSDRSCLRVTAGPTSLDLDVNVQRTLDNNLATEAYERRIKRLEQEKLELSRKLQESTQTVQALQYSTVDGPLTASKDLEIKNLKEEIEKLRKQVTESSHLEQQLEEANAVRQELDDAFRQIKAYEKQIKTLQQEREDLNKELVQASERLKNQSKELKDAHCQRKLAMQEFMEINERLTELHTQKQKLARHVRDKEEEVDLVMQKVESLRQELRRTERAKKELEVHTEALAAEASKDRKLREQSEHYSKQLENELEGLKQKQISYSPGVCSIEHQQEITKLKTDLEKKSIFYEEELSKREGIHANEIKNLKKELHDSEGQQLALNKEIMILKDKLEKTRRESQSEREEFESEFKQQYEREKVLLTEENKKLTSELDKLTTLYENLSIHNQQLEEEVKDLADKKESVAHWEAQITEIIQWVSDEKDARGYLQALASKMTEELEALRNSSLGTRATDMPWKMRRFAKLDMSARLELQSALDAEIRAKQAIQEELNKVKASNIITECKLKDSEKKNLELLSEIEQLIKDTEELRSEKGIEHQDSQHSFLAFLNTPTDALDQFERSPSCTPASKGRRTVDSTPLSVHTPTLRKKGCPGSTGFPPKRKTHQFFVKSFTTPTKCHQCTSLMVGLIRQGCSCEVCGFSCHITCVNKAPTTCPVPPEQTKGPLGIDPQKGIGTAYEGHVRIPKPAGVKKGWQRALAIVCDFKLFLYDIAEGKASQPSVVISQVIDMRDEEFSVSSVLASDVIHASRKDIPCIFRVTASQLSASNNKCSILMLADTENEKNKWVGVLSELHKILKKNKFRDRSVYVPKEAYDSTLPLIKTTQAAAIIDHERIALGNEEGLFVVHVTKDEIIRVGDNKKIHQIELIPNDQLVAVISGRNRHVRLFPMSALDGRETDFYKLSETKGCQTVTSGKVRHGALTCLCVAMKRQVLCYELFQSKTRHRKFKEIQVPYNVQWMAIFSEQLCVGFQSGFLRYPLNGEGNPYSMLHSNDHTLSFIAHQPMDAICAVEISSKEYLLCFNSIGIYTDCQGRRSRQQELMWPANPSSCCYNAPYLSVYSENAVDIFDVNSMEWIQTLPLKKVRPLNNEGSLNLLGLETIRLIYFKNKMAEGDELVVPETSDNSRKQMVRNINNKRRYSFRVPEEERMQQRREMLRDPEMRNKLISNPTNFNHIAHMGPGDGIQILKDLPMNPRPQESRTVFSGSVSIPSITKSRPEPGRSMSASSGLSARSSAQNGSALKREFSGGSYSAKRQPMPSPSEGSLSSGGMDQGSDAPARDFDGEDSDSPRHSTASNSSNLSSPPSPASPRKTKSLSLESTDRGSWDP
Procedure, shortened: as §1

[4] = molecular target: T4, CDK16/cyclinY(h) (Homo sapiens, UniProt Q00536)
T4 construct: purchased Eurofins Discovery Services (KinaseProfiler)
Procedure, shortened: as §1

[5] = molecular target: T5, DDR2(h) (Homo sapiens, UniProt Q16832)
T5 construct: purchased Eurofins Discovery Services (KinaseProfiler)
Procedure, shortened: as §1

[6] = molecular target: T6, ASK1(h) (Homo sapiens, UniProt Q99683)
T6 construct: purchased Eurofins Discovery Services (KinaseProfiler)
Procedure, shortened: as §1

[7] = molecular target: T7, Lyn(m) (Mus musculus, UniProt P25911)
T7 construct: purchased Eurofins Discovery Services (KinaseProfiler)

[8] = molecular target: T8, PAK3(h) (Homo sapiens, UniProt O75914)
T8 construct: purchased Eurofins Discovery Services (KinaseProfiler)
Procedure, shortened: as §1

[9] = molecular target: T9, WNK1(h) (Homo sapiens, UniProt Q9H4A3)
T9 construct: purchased Eurofins Discovery Services (KinaseProfiler)
Procedure, shortened: as §1

[10] = molecular target: T10, Flt1(h) (Homo sapiens, UniProt P17948)
T10 construct: purchased Eurofins Discovery Services (KinaseProfiler)
Procedure, shortened: as §1

[11] = molecular target: T11, TAO1(h) (Homo sapiens, UniProt Q7L7X3)
T11 construct: purchased Eurofins Discovery Services (KinaseProfiler)
Procedure, shortened: as §1

[12] = molecular target: T12, NEK7(h) (Homo sapiens, UniProt Q8TDX7)
T12 construct: purchased Eurofins Discovery Services (KinaseProfiler)
Procedure, shortened: as §1

[13] = molecular target: T13, MuSK(h) (Homo sapiens, UniProt O15146)
T13 construct: purchased Eurofins Discovery Services (KinaseProfiler)
Procedure, shortened: as §1

[14] = molecular target: T14, KDR(h) (Homo sapiens, UniProt P35968)
T14 construct: purchased Eurofins Discovery Services (KinaseProfiler)
Procedure, shortened: as §1

[15] = molecular target: T15, ROCK-I(h) (Homo sapiens, UniProt Q13464)
T15 construct: purchased Eurofins Discovery Services (KinaseProfiler)
T15 sequence (Q13464 whole entry): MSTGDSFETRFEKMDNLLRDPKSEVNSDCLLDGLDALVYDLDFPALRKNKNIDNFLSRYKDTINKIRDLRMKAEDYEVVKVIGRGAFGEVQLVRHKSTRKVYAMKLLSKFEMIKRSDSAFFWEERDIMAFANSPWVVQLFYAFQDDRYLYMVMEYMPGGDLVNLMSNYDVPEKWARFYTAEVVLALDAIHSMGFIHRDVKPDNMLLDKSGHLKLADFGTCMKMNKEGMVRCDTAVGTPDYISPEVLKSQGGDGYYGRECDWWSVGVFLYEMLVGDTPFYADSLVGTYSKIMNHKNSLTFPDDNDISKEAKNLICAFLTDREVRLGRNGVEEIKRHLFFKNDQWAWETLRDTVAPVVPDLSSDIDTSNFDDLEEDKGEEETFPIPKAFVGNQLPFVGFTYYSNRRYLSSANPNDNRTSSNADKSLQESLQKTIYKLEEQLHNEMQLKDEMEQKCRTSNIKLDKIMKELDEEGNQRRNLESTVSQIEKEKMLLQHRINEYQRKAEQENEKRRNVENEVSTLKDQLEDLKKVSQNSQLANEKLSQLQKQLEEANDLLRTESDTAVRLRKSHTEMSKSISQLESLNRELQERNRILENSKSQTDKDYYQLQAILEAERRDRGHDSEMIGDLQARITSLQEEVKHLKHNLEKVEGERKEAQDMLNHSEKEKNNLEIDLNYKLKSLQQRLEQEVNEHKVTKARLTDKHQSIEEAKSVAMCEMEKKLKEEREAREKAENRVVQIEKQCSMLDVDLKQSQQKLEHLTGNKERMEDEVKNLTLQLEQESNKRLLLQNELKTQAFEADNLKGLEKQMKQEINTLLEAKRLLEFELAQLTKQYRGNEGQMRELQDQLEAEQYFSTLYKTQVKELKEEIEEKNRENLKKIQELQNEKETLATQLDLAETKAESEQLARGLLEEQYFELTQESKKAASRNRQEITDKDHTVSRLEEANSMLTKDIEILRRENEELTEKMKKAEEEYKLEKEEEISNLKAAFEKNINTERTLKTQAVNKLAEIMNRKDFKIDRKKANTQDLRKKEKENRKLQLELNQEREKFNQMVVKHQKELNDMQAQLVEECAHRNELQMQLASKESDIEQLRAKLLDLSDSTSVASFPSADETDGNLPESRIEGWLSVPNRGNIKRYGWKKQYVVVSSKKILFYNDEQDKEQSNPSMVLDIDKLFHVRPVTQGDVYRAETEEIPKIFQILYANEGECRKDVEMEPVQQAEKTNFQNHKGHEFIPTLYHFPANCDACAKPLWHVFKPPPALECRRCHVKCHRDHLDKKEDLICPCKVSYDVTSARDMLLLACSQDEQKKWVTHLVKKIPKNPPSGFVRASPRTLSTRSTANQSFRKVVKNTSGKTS
Procedure, shortened: as §1

[16] = molecular target: T16, CK2α2(h) (Homo sapiens, UniProt P19784)
T16 construct: purchased Eurofins Discovery Services (KinaseProfiler)
Procedure, shortened: as §1

[17] = molecular target: T17, JAK2(h) (Homo sapiens, UniProt O60674)
T17 construct: purchased Eurofins Discovery Services (KinaseProfiler)
Procedure, shortened: as §1

[18] = molecular target: T18, Fes(h) (Homo sapiens, UniProt P07332)
T18 construct: purchased Eurofins Discovery Services (KinaseProfiler)
Procedure, shortened: as §1

[19] = molecular target: T19, NIM1(h) (Homo sapiens, UniProt Q8IY84)
T19 construct: purchased Eurofins Discovery Services (KinaseProfiler)
Procedure, shortened: as §1

[20] = molecular target: T20, Met(Y1248C)(h) (Homo sapiens, UniProt P08581, Y1230C)
T20 construct: purchased Eurofins Discovery Services (KinaseProfiler)
Procedure, shortened: as §1

[21] = molecular target: T21, BTK(h) (Homo sapiens, UniProt Q06187)
T21 construct: purchased Eurofins Discovery Services (KinaseProfiler)
Procedure, shortened: as §1

[22] = molecular target: T22, EphA7(h) (Homo sapiens, UniProt Q15375)
T22 construct: purchased Eurofins Discovery Services (KinaseProfiler)
T22 sequence (Q15375 28-998): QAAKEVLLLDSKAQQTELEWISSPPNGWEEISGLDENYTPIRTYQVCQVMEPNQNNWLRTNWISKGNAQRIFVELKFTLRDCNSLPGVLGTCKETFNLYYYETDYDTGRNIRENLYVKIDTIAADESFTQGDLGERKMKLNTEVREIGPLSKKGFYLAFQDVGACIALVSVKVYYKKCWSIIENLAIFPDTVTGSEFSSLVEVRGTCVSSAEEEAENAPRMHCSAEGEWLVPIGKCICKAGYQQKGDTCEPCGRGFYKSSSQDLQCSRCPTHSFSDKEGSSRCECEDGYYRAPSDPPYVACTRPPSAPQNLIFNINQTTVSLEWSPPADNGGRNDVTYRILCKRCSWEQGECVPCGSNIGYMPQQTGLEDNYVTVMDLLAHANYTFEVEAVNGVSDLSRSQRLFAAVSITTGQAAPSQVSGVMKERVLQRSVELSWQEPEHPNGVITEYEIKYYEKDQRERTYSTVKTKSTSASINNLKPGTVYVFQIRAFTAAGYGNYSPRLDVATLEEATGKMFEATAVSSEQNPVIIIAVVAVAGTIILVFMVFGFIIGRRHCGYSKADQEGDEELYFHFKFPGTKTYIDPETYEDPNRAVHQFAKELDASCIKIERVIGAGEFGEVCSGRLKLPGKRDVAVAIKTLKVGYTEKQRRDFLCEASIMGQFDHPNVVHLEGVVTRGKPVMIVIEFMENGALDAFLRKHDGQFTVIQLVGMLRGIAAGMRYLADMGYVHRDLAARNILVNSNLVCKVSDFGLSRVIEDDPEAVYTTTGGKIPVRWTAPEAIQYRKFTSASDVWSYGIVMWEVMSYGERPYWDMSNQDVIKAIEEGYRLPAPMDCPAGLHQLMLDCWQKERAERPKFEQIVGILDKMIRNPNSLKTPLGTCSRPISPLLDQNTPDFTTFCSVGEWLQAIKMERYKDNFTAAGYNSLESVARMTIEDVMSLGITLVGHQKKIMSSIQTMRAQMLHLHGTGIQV
Procedure, shortened: as §1

[23] = molecular target: T23, CLK1(h) (Homo sapiens, UniProt P49759)
T23 construct: purchased Eurofins Discovery Services (KinaseProfiler)
T23 sequence (P49759 whole entry): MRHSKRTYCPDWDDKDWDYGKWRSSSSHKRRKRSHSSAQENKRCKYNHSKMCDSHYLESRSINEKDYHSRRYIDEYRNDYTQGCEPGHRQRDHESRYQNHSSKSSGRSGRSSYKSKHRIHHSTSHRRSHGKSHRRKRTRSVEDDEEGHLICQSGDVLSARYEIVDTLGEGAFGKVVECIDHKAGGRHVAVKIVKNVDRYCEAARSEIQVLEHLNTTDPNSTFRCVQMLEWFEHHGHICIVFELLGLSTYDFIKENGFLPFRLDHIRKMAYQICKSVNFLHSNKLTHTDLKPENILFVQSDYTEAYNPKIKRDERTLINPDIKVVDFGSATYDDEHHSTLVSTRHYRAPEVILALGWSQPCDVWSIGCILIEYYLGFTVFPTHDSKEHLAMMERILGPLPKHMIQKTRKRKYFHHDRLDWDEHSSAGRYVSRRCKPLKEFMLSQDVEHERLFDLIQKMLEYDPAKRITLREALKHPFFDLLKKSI
Procedure, shortened: as §1

[24] = molecular target: T24, NEK2(h) (Homo sapiens, UniProt P51955)
T24 construct: purchased Eurofins Discovery Services (KinaseProfiler)
Procedure, shortened: as §1

[25] = molecular target: T25, NLK(h) (Homo sapiens, UniProt Q9UBE8)
T25 construct: purchased Eurofins Discovery Services (KinaseProfiler)
Procedure, shortened: as §1

[26] = molecular target: T26, TSSK1(h) (Homo sapiens, UniProt Q9BXA7)
T26 construct: purchased Eurofins Discovery Services (KinaseProfiler)
Procedure, shortened: as §1

[27] = molecular target: T27, SAPK2a(h) (Homo sapiens, UniProt Q16539)
T27 construct: purchased Eurofins Discovery Services (KinaseProfiler)
Procedure, shortened: as §1

[28] = molecular target: T28, DNA-PK(h) (Homo sapiens, UniProt P78527)
T28 construct: purchased Eurofins Discovery Services (KinaseProfiler)
Procedure, shortened: as §1

[29] = molecular target: T29, MINK(h) (Homo sapiens, UniProt Q8N4C8)
T29 construct: purchased Eurofins Discovery Services (KinaseProfiler)
Procedure, shortened: as §1

[30] = molecular target: T30, EphA1(h) (Homo sapiens, UniProt P21709)
T30 construct: purchased Eurofins Discovery Services (KinaseProfiler)
Procedure, shortened: as §1

[31] = molecular target: T31, PAK6(h) (Homo sapiens, UniProt Q9NQU5)
T31 construct: purchased Eurofins Discovery Services (KinaseProfiler)
Procedure, shortened: as §1

[32] = molecular target: T32, PDHK4(h) (Homo sapiens, UniProt Q16654)
T32 construct: purchased Eurofins Discovery Services (KinaseProfiler)
Procedure, shortened: as §1

[33] = molecular target: T33, VRK2(h) (Homo sapiens, UniProt Q86Y07)
T33 construct: purchased Eurofins Discovery Services (KinaseProfiler)
Procedure, shortened: as §1

[34] = molecular target: T34, Fer(h) (Homo sapiens, UniProt P16591)
T34 construct: purchased Eurofins Discovery Services (KinaseProfiler)
Procedure, shortened: as §1

[35] = molecular target: T35, SAPK4(h) (Homo sapiens, UniProt O15264)
T35 construct: purchased Eurofins Discovery Services (KinaseProfiler)
Procedure, shortened: as §1

[36] = molecular target: T36, STK25(h) (Homo sapiens, UniProt O00506)
T36 construct: purchased Eurofins Discovery Services (KinaseProfiler)
T36 sequence (O00506 whole entry): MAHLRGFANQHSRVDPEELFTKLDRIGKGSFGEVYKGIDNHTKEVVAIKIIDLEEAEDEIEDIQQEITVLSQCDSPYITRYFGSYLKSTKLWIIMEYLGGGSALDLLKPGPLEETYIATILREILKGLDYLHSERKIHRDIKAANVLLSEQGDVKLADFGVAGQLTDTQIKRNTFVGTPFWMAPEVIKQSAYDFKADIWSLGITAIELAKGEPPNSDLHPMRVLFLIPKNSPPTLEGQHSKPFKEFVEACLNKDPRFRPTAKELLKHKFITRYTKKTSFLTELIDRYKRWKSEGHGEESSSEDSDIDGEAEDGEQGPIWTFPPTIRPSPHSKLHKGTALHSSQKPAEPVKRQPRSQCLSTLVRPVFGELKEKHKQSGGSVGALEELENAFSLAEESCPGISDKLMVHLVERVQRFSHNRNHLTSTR
Procedure, shortened: as §1

[37] = molecular target: T37, PI3 Kinase (p110a/p85a)(h) (Homo sapiens, UniProt P42336)
T37 construct: purchased Eurofins Discovery Services (KinaseProfiler)
Procedure, shortened: as §1

[38] = molecular target: T38, PAR-1Bα(h) (Homo sapiens, UniProt Q7KZI7)
T38 construct: purchased Eurofins Discovery Services (KinaseProfiler)
Procedure, shortened: as §1

COc1cc(OC)cc(N(CCN[C@H](C)CO)c2ccc3ncc(-c4cnn(C)c4)c(=O)n3c2)c1 [RK-019, (R)-7-((3,5-dimethoxyphenyl) (2-((1-hydroxypropan-2-yl)amino)ethyl)amino)-3-(1-methyl-1H-pyrazol-4-yl)-4H-pyrido [1,2-a]pyrimidin-4-one]
activity at 1 µM [1]: 97% | activity at 1 µM [2]: 87% | activity at 1 µM [3]: 103% | activity at 1 µM [4]: 108% | activity at 1 µM [5]: 109% | activity at 1 µM [6]: 118% | activity at 1 µM [7]: 23% | activity at 1 µM [8]: 97% | activity at 1 µM [9]: 95% | activity at 1 µM [10]: 29% | activity at 1 µM [11]: 115% | activity at 1 µM [12]: 99% | activity at 1 µM [13]: 105% | activity at 1 µM [14]: 9% | activity at 1 µM [15]: 101% | activity at 1 µM [16]: 105% | activity at 1 µM [17]: 106% | activity at 1 µM [18]: 106% | activity at 1 µM [19]: 103% | activity at 1 µM [20]: 85% | activity at 1 µM [21]: 72% | activity at 1 µM [22]: 108% | activity at 1 µM [23]: 104% | activity at 1 µM [24]: 80% | activity at 1 µM [25]: 86% | activity at 1 µM [26]: 109% | activity at 1 µM [27]: 100% | activity at 1 µM [28]: 101% | activity at 1 µM [29]: 133% | activity at 1 µM [30]: 19% | activity at 1 µM [31]: 96% | activity at 1 µM [32]: 93% | activity at 1 µM [33]: 104% | activity at 1 µM [34]: 127% | activity at 1 µM [35]: 112% | activity at 1 µM [36]: 66% | activity at 1 µM [37]: 101% | activity at 1 µM [38]: 92%

From paper PMC9532703, “A novel small molecule RK-019 inhibits FGFR2-amplification gastric cancer cell proliferation and induces apoptosis in vitro and in vivo” (Frontiers in Pharmacology, 2022)
